Test results: US9340574B2, “Inhibitors of protein tyrosine phosphatases” (Indiana University Research and Technology Corporation, priority 2012, dated 2016)

Target: PTP-MEG2 (Homo sapiens (Human), UniProt P43378)
Experiment: pNPP hydrolysis enzyme assay, PTP-MEG2
Type: biochemical
Experimental: Enzyme kinetic assay. PTP activity was assayed using p-nitrophenyl phosphate (pNPP) as a substrate in 3,3-dimethylglutarate buffer (50 mM 3,3-dimethylglutarate, pH 7.0, 1 mM EDTA, 150 mM NaCl, 2 mM DTT, 0.1 mg/mL BSA) at 25° C. The assays were performed in 96-well plates. Normally, to determine the IC50 values, the reaction was initiated by the addition of enzyme (final concentration at 10 nM) to a reaction mixture (0.2 mL) containing 2 mM (Km for the substrate) pNPP with various concentrations of inhibitors. The reaction rate was measured using a SpectraMax Plus 384 Microplate Spectrophotometer (Molecular Devices). To determine the mode of inhibition, the reactions were initiated by the addition of PTP-MEG2 to the reaction mixtures (0.2 mL) containing various concentrations of pNPP with different concentrations of the inhibitor 7. Data were fitted using SigmaPlot Enzyme Kinetics Module (Systat Software, Inc.).
PTP-MEG2 Overexpression, and Purification. The expression vector containing residues 277-582 of PTP-MEG2 catalytic domain was provided by Stefan Knapp at the University of Oxford. For protein expression, transformed cells were grown at 37° C. in Luria broth (LB) containing […] ampicillin for 4 h to an OD600 nm @0.6, and then induced for overnight at 18° C. with 0.4 mM IPTG. Cells were harvested by centrifugation (6500 rpm for 15 min at 4° C.), and the cell pellets from 1.5 L LB medium were suspended in 30 mL of ice-cold lysis buffer consisting of 5 mM imidazole, 500 mM NaCl, 20 mM Tris-HCl (pH 7.9), 0.05 mg/mL trypsin inhibitor and 0.1 mM PMSF. The suspensions were passed twice through a French Press at 1200 psi, and the cell lysates were centrifuged at 4° C. for 30 min at 16,000 rpm. The supernatants were mixed with 2 mL Ni-NTA Agarose (His*Bind Resin) (Qiagen) at 4° C. for 1 hour, then transferred mixture to an empty column. The column was washed by 200 mL binding buffer (5 mM imidazole, 500 mM NaCl, 20 mM Tris-HCl (pH 7.9)), followed by 20 mL wash buffer (20 mM imidazole, 500 mM NaCl, 20 mM Tris-HCl (pH 7.9)), and then eluted with 20 mL elution buffer (200 mM imidazole, 500 mM NaCl, 20 mM Tris-HCl (pH 7.9), 5 mM DTT). The elution was dialyzed for 6 h at 4° C. against 1 L buffer A (50 mM NaCl, 20 mM MES (pH6.0), 1 mM EDTA), and then loaded onto a Mono S column equilibrated at 4° C. with buffer A. The column was washed with 10 ml buffer A and then eluted with a 40 mL linear gradient of 0 to 1M NaCl in buffer A. The PTP-MEG2 was eluted at 0.35 M NaCl. The column fractions were analyzed by measuring the absorbance at 280 nm and by carrying out SDS-PAGE analysis. The fractions were combined, dialyzed against 1 L buffer A and concentrated at 4° C. to 8 mg/mL using an Amicon concentrator and then stored at −80° C.

Sequence of PTP-MEG2 (P43378 277-582): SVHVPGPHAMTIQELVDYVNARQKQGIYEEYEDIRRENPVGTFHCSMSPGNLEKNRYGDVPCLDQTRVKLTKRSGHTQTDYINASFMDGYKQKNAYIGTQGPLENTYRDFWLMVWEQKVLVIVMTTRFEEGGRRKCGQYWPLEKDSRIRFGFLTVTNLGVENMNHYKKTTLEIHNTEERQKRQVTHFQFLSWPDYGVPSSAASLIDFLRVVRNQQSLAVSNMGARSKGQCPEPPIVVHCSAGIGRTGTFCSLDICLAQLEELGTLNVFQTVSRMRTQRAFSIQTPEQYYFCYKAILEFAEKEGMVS

Structure (SMILES): COc1cc(CC(=O)NCC(NC(=O)C(CCCNC(=O)c2cccc(I)c2)NC(=O)C(Cc2ccc(C(F)(F)P(=O)(O)O)cc2)NC(=O)c2ccc(C)c(Br)c2)C(N)=O)ccc1O (stereo not shown) [Compound 7]
- improvement in potency / binding affinity for PTP-MEG2 over the preceding lead (Compound 5 vs Compound 3, Compound 7 vs Compound 5): 3.6 fold
- mode of inhibition of PTP-MEG2 (kinetic analysis): reversible and competitive inhibitor
- Ki (kinetic analysis, Lineweaver-Burk): 0.034 ± 0.002 µM
- IC50 (pNPP substrate, read-out: IC50 (nM) PTP-MEG2): 75 ± 10 nM
